Test results taken from ChEMBL document CHEMBL4028859, “Inhibition of Calcium Dependent Protein Kinase 1 (CDPK1) by Pyrazolopyrimidine Analogs Decreases Establishment and Reoccurrence of Central Nervous System Disease by Toxoplasma gondii” (J Med Chem, 2017).

Tests used:
[1] = Apparent permeability from apical to basolateral side in human Caco2 cells at 5 uM by LC-MS/MS analysis; type: ADME, cell-based; settings: caco-2, 5 µM
[2] = Apparent permeability from basolateral to apical side in human Caco2 cells at 5 uM by LC-MS/MS analysis; type: ADME, cell-based; settings: caco-2, 5 µM
[3] = (§1) Tmax in Swiss albino mouse at 10 mg/kg, po administered as single dose by LC-MS/MS analysis; type: ADME, organism-based; settings: Swiss albino, in vivo
[4] = Initial concentration in Swiss albino mouse at 3 mg/kg, iv administered as single dose by LC-MS/MS analysis; type: ADME, organism-based; settings: in vivo
[5] = (§2) Cmax in Swiss albino mouse at 10 mg/kg, po administered as single dose by LC-MS/MS analysis; type: ADME, organism-based; parameters: dose 10 mg/kg, route oral; settings: Swiss albino, in vivo
[6] = (§3) AUClast in Swiss albino mouse at 3 mg/kg, iv administered as single dose by LC-MS/MS analysis; type: ADME, organism-based; parameters: dose 3 mg/kg, time 0 - last, route intravenous; settings: Swiss albino, in vivo
[7] = (§4) AUClast in Swiss albino mouse at 10 mg/kg, po administered as single dose by LC-MS/MS analysis; type: ADME, organism-based; parameters: dose 10 mg/kg, route oral, time 0 - last; settings: Swiss albino, in vivo
[8] = (§5) AUC (infinity) in Swiss albino mouse at 3 mg/kg, iv administered as single dose by LC-MS/MS analysis; type: ADME, organism-based; parameters: dose 3 mg/kg, time infinity, route intravenous; settings: Swiss albino, in vivo
[9] = (§6) AUC (infinity) in Swiss albino mouse at 10 mg/kg, po administered as single dose by LC-MS/MS analysis; type: ADME, organism-based; parameters: dose 10 mg/kg, time infinity, route oral; settings: Swiss albino, in vivo
[10] = (§7) Volume of distribution at steady state in Swiss albino mouse at 3 mg/kg, iv administered as single dose by LC-MS/MS analysis; type: ADME, organism-based; settings: Swiss albino, in vivo, read-out: Vdss
[11] = test system: Mus musculus; assay: Oral bioavailability in Swiss albino mouse at 10 mg/kg administered as single dose by LC-MS/MS analysis; type: ADME, organism-based; settings: in vivo
[12] = Dissociation constant, pKa of compound; type: physicochemical
[13] = test system: Mus musculus; assay: as §1; type: ADME, organism-based; settings: in vivo
[14] = test system: Mus musculus; assay: as §2; type: ADME, organism-based; parameters: dose 10 mg/kg, route oral; settings: in vivo
[15] = test system: Mus musculus; assay: as §3; type: ADME, organism-based; parameters: dose 3 mg/kg, time 0 - last, route intravenous; settings: in vivo
[16] = test system: Mus musculus; assay: as §4; type: ADME, organism-based; parameters: dose 10 mg/kg, route oral, time 0 - last; settings: in vivo
[17] = test system: Mus musculus; assay: as §6; type: ADME, organism-based; parameters: dose 10 mg/kg, time infinity, route oral; settings: in vivo
[18] = test system: Mus musculus; assay: as §7; type: ADME, organism-based; settings: in vivo
[19] = Ratio of total drug level in CNS to serum in Swiss albino mouse at 10 to 50 mg/kg, po administered as single dose upto 24 hrs by LC-MS/MS analysis; type: ADME, organism-based
[20] = Ratio of total drug level in brain to plasma in Swiss albino mouse at 10 to 50 mg/kg, po administered as single dose upto 24 hrs by LC-MS/MS analysis; type: ADME, organism-based; settings: read-out: BPR
[21] = test system: Mus musculus; assay: as §5; type: ADME, organism-based; parameters: dose 3 mg/kg, time infinity, route intravenous; settings: in vivo

SMILES	Papp [1]	Papp [2]	C0 [4]	pKa [12]	Tmax [13]	Cmax [14]	AUClast [15]	AUClast [16]	AUC [17]	Vdss [18]	further results
CC(C)(C)n1nc(Cc2cccc(Cl)c2)c2c(N)ncnc21	42.9 ×10⁻⁶ cm/s	28.7 ×10⁻⁶ cm/s	6890 ng/mL								Tmax [3]: 15 min; Cmax [5]: 585 ng/mL; AUC(0-t) [6]: 1080 ng·h/mL; AUC(0-t) [7]: 919 ng·h/mL; AUC(0-inf) [8]: 1080 ng·h/mL; AUC(0-inf) [9]: 931 ng·h/mL; Vd [10]: 1.09 L/kg; F [11]: 26%
Nc1ncnc2c1c(Oc1cccc(Cl)c1)nn2CC1CCNCC1(F)F (configuration not stated)	22.8 ×10⁻⁶ cm/s	21.2 ×10⁻⁶ cm/s	1210 ng/mL	7.1	15 min	1048.8 ng/mL	975.9 ng·h/mL	3058.44 ng·h/mL	3547.95 ng·h/mL	3.68 L/kg	Kp at 24 h [19]: 5.6; Kp at 24 h [20]: 1.3
CC(C)(C)n1nc(Oc2cccc(Cl)c2)c2c(N)ncnc21	34.8 ×10⁻⁶ cm/s	30.6 ×10⁻⁶ cm/s	5470 ng/mL		15 min	1136.36 ng/mL		1172.75 ng·h/mL	1279.2 ng·h/mL	1.1 L/kg	
Nc1ncnc2c1c(Sc1cccc(Cl)c1)nn2CC1CCNCC1(F)F (configuration not stated)	27.1 ×10⁻⁶ cm/s	25.3 ×10⁻⁶ cm/s		7.1							
Nc1ncnc2c1c(Sc1cccc(Cl)c1)nn2CC1CCNCC1	2.76 ×10⁻⁶ cm/s	25.6 ×10⁻⁶ cm/s		10.4							
Nc1ncnc2c1c(Oc1cccc(Cl)c1)nn2CC1CCNCC1	1.07 ×10⁻⁶ cm/s	9.58 ×10⁻⁶ cm/s	536 ng/mL	10.4	120 min	182.56 ng/mL	449.57 ng·h/mL	757.85 ng·h/mL	891.24 ng·h/mL	19.59 L/kg	
Cc1cccc(Oc2nn(C(C)(C)C)c3ncnc(N)c23)c1	15 ×10⁻⁶ cm/s	14.6 ×10⁻⁶ cm/s	2740 ng/mL		15 min	76.69 ng/mL	619.33 ng·h/mL	85.47 ng·h/mL	91.42 ng·h/mL	2.32 L/kg	AUC [21]: 625.04 ng·h/mL
